Patent US12433896B2, “Deuterated analogs of etifoxine, their derivatives and uses thereof” (GABA Therapeutics Inc., priority 2015, dated 2025)
Structures can show the parent of a compound that is named as a salt. Each block holds one compound with its values, some of them ahead of it.

Tests used:
[1] = cited from earlier work
[2] = liver human microsomes stability study; assay type: in vitro ADME; conditions: for half-life at 0.1 μM: human, liver microsomes
Experimental: (§1) Compounds were evaluated for liver microsome metabolic stability at Eurofins/Cerep (St. Charles, MO). […] Test compounds at a concentration of 0.1 μM were incubated for up to 60 minutes in duplicate. The microsomal protein concentration was 0.1 mg/mL. The parent compound was detected by HPLC-MS/MS analysis. The percent compound remaining was calculated by comparing the peak area of the parent compound at each time point to time zero. Half-life was estimated from the slope of the initial linear range of the logarithmic curve of parent compound remaining vs. time, assuming first order kinetics. The apparent intrinsic clearance was further calculated from the half-life value for assays with microsomes.

[3] = rat liver microsomes stability study; assay type: in vitro ADME; conditions: for half-life at 0.1 μM: rat, liver microsomes
Experimental: as §1

[4] = pharmacokinetics in male Sprague-Dawley rats after oral gavage; assay type: in vivo; conditions: PO 50 mg/kg; for Cmax / AUC(0-t): rat, male Sprague-Dawley rats, plasma, average N=3, 70/30 Saline/PEG400; for AUC(0-t): read-out: AUC0-12
Experimental: Compounds were evaluated for pharmacokinetic profiles in male Sprague-Dawley rats at Shanghai Chempartner, Shanghai, China. Etifoxine hydrochloride and the hydrochloride salt of the compound described in example 1 were dosed to Sprague-Dawley rats via oral gavage (PO). Each compound was administered at a dose of 50 mg/kg to three rats (N=3 rats/compound; total 6 rats in the study). Each compound was formulated in 70/30 Saline/PEG400 at a concentration of 5 mg/mL (10 mL/kg injection volume/rat). Blood samples were collected from each rat at 10, 20, 30, 45 minutes and 1, 2,4 and 12 hours post-dose. Blood samples were put on ice and centrifugated to obtain plasma. Plasma samples were analyzed for concentrations of the dosed compound at each time point by LC-MS/MS using an AB-Sciex API-400 mass spectrometer. The lower limit of quantitation of each compound was 1 ng/mL. Pharmacokinetic parameters were determined by non-compartmental analysis using WinNonlin 6.2 software.

[5] = human liver microsomes, 0.1 μM compound, 0.1 mg/mL microsomal protein, up to 60 minutes, read-out: Half-life (minutes) Experiment 1
[6] = 0.1 μM compound, 0.1 mg/mL microsomal protein, up to 60 minutes, read-out: Half-life (minutes) Experiment 2
[7] = same conditions, different lot of human liver microsomes, read-out: average half-life
[8] = rats, relative to etifoxine hydrochloride

SMILES: [2H]C([2H])([2H])C([2H])([2H])NC1=Nc2ccc(Cl)cc2C(C)(c2ccccc2)O1 (stereo not drawn) [Example 1, 6-chloro-N-(ethyl-d5)-4-methyl-4-phenyl-4H-3,1-benzoxazin-2-amine]
half-life longer than that of etifoxine ([2]; human liver microsomes, relative to etifoxine): about 86%
half-life at 0.1 μM [2, 5]: 39.7 min
half-life at 0.1 μM ([2]; human liver microsomes, 0.1 μM compound, 0.1 mg/mL microsomal protein, up to 60 minutes, read-out: Half-life (minutes) Experiment 2): 41.8 min
half-life at 0.1 μM ([2]; human liver microsomes, average of experiments 1 and 2, read-out: Half-life (minutes) Average): 41 min
half-life at 0.1 μM ([3]; 0.1 μM compound, 0.1 mg/mL microsomal protein, up to 60 minutes, read-out: Half-life (minutes) Experiment 1): 13.8 min
half-life at 0.1 μM [3, 6]: 13.8 min
half-life at 0.1 μM ([3]; average of experiments 1 and 2, read-out: Half-life (minutes) Average): 14 min
half-life longer than that of etifoxine ([3]; relative to etifoxine): about 75%

SMILES: [2H]c1c([2H])c([2H])c(C2(C)OC(NCC)=Nc3ccc(Cl)cc32)c([2H])c1[2H] (stereo not drawn) [Example 6, 6-chloro-N-ethyl-4-methyl-4-(phenyl-d5)-4H-3,1-benzoxazin-2-amine]
half-life at 0.1 μM [2, 7]: 18 min

SMILES: [2H]C([2H])([2H])C([2H])([2H])NC1=Nc2ccc(Cl)cc2C(C)(c2ccccc2)O1 (stereo not drawn) [Example 1 hydrochloride, 6-chloro-N-(ethyl-d5)-4-methyl-4-phenyl-4H-3,1-benzoxazin-2-amine]
AUC0-12 greater than etifoxine hydrochloride [4, 8]: 2.5 times
Cmax greater than etifoxine hydrochloride [4, 8]: 1.7 times
Cmax [4]: 1930 ng/mL
AUC(0-t) [4]: 8340 ng·h/mL

SMILES: [2H]C([2H])([2H])C1(c2ccccc2)OC(NCC)=Nc2ccc(Cl)cc21 (stereo not drawn) [Example 7, 6-chloro-N-ethyl-4-(methyl-d3)-4-phenyl-4H-3,1-benzoxazin-2-amine]
half-life at 0.1 μM [2, 7]: 18 min

The next lines start with results.

Half-life (minutes) Experiment 2 ([2]; human liver microsomes, 0.1 μM compound, 0.1 mg/mL microsomal protein, up to 60 minutes): 21.9 min
half-life at 0.1 μM [2, 5]: 23 min
Half-life (minutes) Experiment 1 ([3]; 0.1 μM compound, 0.1 mg/mL microsomal protein, up to 60 minutes): 7.7 min
half-life at 0.1 μM [3, 6]: 7.4 min
SMILES: CCNC1=Nc2ccc(Cl)cc2C(C)(c2ccccc2)O1 (stereo not drawn) [Etifoxine, 6-chloro-2-(ethylamino)-4-methyl-4-phenyl-4H-3,1-benzoxazine]
half-life in humans [1]: 240 to 360 min

Cmax [4]: 1140 ng/mL
AUC(0-t) [4]: 3380 ng·h/mL
SMILES: CCNC1=Nc2ccc(Cl)cc2C(C)(c2ccccc2)O1 (stereo not drawn) [Etifoxine hydrochloride, 6-chloro-2-(ethylamino)-4-methyl-4-phenyl-4H-3,1-benzoxazine, reference compound]
